ChEMBL document CHEMBL5576112, “Synthesis, in silico, in vitro evaluation of furanyl- and thiophenyl-3-phenyl-1H-indole-2-carbohydrazide derivatives as tubulin inhibitors and anticancer agents” (RSC Med Chem, 2024)
Calls of active or inactive are those of the source. No cut-off for these calls is given here.

Assays:
NCI-H522 [1] = assay: Growth inhibition of human NCI-H522 cells at 10 uM measured after 48 hrs by sulforhodamine B assay; assay type: functional, cell-based
NCI-H522 [2] = assay: Growth inhibition of human NCI-H522 cells measured after 48 hrs by sulforhodamine B assay; assay type: functional; details: for CC50: read-out: LC50 (the source's name)
COLO 205 [3] = assay: Growth inhibition of human COLO 205 cells at 10 uM measured after 48 hrs by sulforhodamine B assay; assay type: functional, cell-based
MDA-MB-435 [4] = assay: Growth inhibition of human MDA-MB-435 cells at 10 uM measured after 48 hrs by sulforhodamine B assay; assay type: functional, cell-based
MDA-MB-435 [5] = assay: Growth inhibition of human MDA-MB-435 cells measured after 48 hrs by sulforhodamine B assay; assay type: functional
MDA-MB-231 [6] = assay: Induction of apoptosis in human MDA-MB-231 cells assessed as necrotic cells at 10 uM measured after 24 hrs by Annexin V/7-AAD double staining based muse cell analyzer method (reference value: 0.72%); assay type: functional
MDA-MB-231 [7] = assay: Cell cycle arrest in human MDA-MB-231 cells assessed as accumulation of cells at G0/G1 phase at 10 uM measured after 24 hrs by Muse cell analyzer based assay (reference value: 59.7%); assay type: functional
MDA-MB-231 [8] = assay: Cell cycle arrest in human MDA-MB-231 cells assessed as accumulation of cells at S phase at 10 uM measured after 24 hrs by Muse cell analyzer based assay (reference value: 12.9%); assay type: functional
MDA-MB-231 [9] = assay: Cytotoxicity against human MDA-MB-231 cells assessed as reduction in cell viability measured after 48 hrs by MTT assay; assay type: functional, cell-based; details: MDA-MB-231, 48 h
COLO 205 [10] = assay: Growth inhibition of human COLO 205 cells measured after 48 hrs by sulforhodamine B assay; assay type: functional; details: for CC50: read-out: LC50 (the source's name)
Sus scrofa [11] = species on record: Sus scrofa; assay: Inhibition of porcine brain tubulin polymerization assessed as microtubule destabilization at 10 uM measured at 60 secs interval for 60 mins in presence of GTP by fluorescence assay
SK-MEL-5 [12] = assay: Growth inhibition of human SK-MEL-5 cells measured after 48 hrs by sulforhodamine B assay; assay type: functional; details: for CC50: read-out: LC50 (the source's name)
MDA-MB-231 [13] = assay: Induction of apoptosis in human MDA-MB-231 cells assessed as viable cells at 10 uM measured after 24 hrs by Annexin V/7-AAD double staining based muse cell analyzer method (reference value: 96.21%); assay type: functional; details: read-out: Activity
SK-MEL-5 [14] = assay: Growth inhibition of human SK-MEL-5 cells at 10 uM measured after 48 hrs by sulforhodamine B assay; assay type: functional, cell-based
[15] = Cytotoxicity against human HaCaT cells assessed as reduction in cell viability measured after 48 hrs by MTT assay; assay type: toxicity, cell-based
MDA-MB-231 [16] = assay: Cell cycle arrest in human MDA-MB-231 cells assessed as accumulation of cells at G2/M phase at 10 uM measured after 24 hrs by Muse cell analyzer based assay (reference value: 27.3%); assay type: functional
MDA-MB-231 [17] = assay: Induction of apoptosis in human MDA-MB-231 cells assessed as late apoptotic cells at 10 uM measured after 24 hrs by Annexin V/7-AAD double staining based muse cell analyzer method (reference value: 1.44%); assay type: functional
Sus scrofa [18] = species on record: Sus scrofa; assay: Inhibition of porcine brain tubulin polymerization assessed as microtubule destabilization by measuring relative fluorescence unit at 10 uM measured at 60 secs interval for 60 mins in presence of GTP by fluorescence assay
MDA-MB-231 [19] = assay: Induction of morphological changes in human MDA-MB-231 cells assessed as loss of cell polarity at 10 uM measured after 24 hrs; assay type: functional, cell-based
MDA-MB-231 [20] = assay: Induction of apoptosis in human MDA-MB-231 cells assessed as early apoptotic cells at 10 uM measured after 24 hrs by Annexin V/7-AAD double staining based muse cell analyzer method (reference value: 1.64%); assay type: functional
SF-295 [21] = assay: Growth inhibition of human SF-295 cells at 10 uM measured after 48 hrs by sulforhodamine B assay; assay type: functional, cell-based
SF-295 [22] = assay: Growth inhibition of human SF-295 cells measured after 48 hrs by sulforhodamine B assay; assay type: functional; details: read-out: LC50 (the source's name)
SF-539 [23] = assay: Growth inhibition of human SF-539 cells measured after 48 hrs by sulforhodamine B assay; assay type: functional; details: for CC50: read-out: LC50 (the source's name)
NCI/ADR-RES [24] = assay: Growth inhibition of human NCI-ADR-RES cells at 10 uM measured after 48 hrs by sulforhodamine B assay; assay type: functional, cell-based
NCI/ADR-RES [25] = assay: Growth inhibition of human NCI-ADR-RES cells measured after 48 hrs by sulforhodamine B assay; assay type: functional; details: for CC50: read-out: LC50 (the source's name)
SF-539 [26] = assay: Growth inhibition of human SF-539 cells at 10 uM measured after 48 hrs by sulforhodamine B assay; assay type: functional, cell-based

| SMILES | growth inhibition (GI) (NCI-H522 [1]) | GI50 (NCI-H522 [2]) [µM] | CC50 (NCI-H522 [2]) [µM] | growth inhibition (GI) (COLO 205 [3]) | CC50 (COLO 205 [10]) [µM] | CC50 (SK-MEL-5 [12]) [µM] | growth inhibition (GI) (SK-MEL-5 [14]) | RFU (Sus scrofa [18]) [a.u.] | GI50 (SF-539 [23]) [µM] | CC50 (SF-539 [23]) [µM] | growth inhibition (GI) (NCI/ADR-RES [24]) | GI50 (NCI/ADR-RES [25]) [µM] | CC50 (NCI/ADR-RES [25]) [µM] | growth inhibition (GI) (SF-539 [26]) | other results |
| --- | --- | --- | --- | --- | --- | --- | --- | --- | --- | --- | --- | --- | --- | --- | --- |
| COc1ccc(/C=N/NC(=O)c2[nH]c3ccc(Br)cc3c2-c2ccccc2)s1 | Active | 0.0193 | > 100 | Active | 0.719 | > 100 | Active | 45 | – | – | – | – | – | – | growth inhibition (GI) (MDA-MB-435 [4]): Active; GI50 (MDA-MB-435 [5]): 0.0253 µM; CC50 (MDA-MB-435 [5]; read-out: LC50 (the source's name)): > 100 µM; Activity (MDA-MB-231 [6]): 5.13%; Activity (MDA-MB-231 [7]): 17.9%; Activity (MDA-MB-231 [8]): 11.2%; IC50 (MDA-MB-231 [9]): 0.56 µM; GI50 (COLO 205 [10]): 0.191 µM; inhibition (Sus scrofa [11]): inactive; GI50 (SK-MEL-5 [12]): 0.0523 µM; viability at 10 µM (MDA-MB-231 [13]): 85.2%; IC50 at 48 h [15]: 0.34 µM; Activity (MDA-MB-231 [16]): 70.7%; Activity (MDA-MB-231 [17]): 6.21%; Activity (MDA-MB-231 [19]): Active; Activity (MDA-MB-231 [20]): 3.48% |
| O=C(N/N=C/c1ccc(-c2ccc(O)cc2)o1)c1[nH]c2ccc(Br)cc2c1-c1ccccc1 | – | – | – | Active | 7.21 | 4.14 | Active | 45 | – | – | – | – | – | – | growth inhibition (GI) (SF-295 [21]): Active; CC50 (SF-295 [22]): 8.09 µM |
| O=C(N/N=C/c1ccc(Cl)s1)c1[nH]c2ccc(Br)cc2c1-c1ccccc1 | Active | < 0.1 | > 10 | – | – | – | – | – | < 0.1 | > 10 | Active | < 0.1 | > 10 | Active | – |
| O=C(N/N=C/c1ccc(Br)s1)c1[nH]c2ccc(Br)cc2c1-c1ccccc1 | Active | < 0.1 | > 10 | – | – | – | – | – | < 0.1 | > 10 | Active | < 0.1 | > 10 | Active | – |
